Laboratory results published in paper PMC12277336, “Hypericum empetrifolium subsp. empetrifolium: an assessment of its antifungal, antidiabetic, anti-aging, and neuroprotective potential” (Frontiers in Pharmacology, 2025).
Converted amounts (≈) assume the structure as drawn. “And” between values parts separate entries of the source, which are not always exact repeats. Equal values may be shown once.

Legend:
[1] = target: α-Glucosidase; conditions: flavonoids isolated from H. attenuatum; ref Jin et al., 2021; cited from earlier work
[2] = Cupric reducing antioxidant capacity (CUPRAC); conditions: 450 nm
Protocol: The absorbance of this chelate formation is then quantified at a wavelength of 450 nm. In the CUPRAC method, according to the procedure developed by Apak et al.; Cu (II), neocuproine (2,9-dimethyl-1,10-phenanthroline), and NH4OAc buffer were added to the sample and standard solutions to achieve final concentrations of 10, 25, 50, and 100 μ g/mL. After an incubation period of 1 h, the absorbance was measured at 450 nm. BHA, BHT, and α -TOC were used as positive control ([Apak et al., 2004]).

[3] = ABTS cation radical scavenging assay
Protocol: The ABTS cation radical scavenging assay was evaluated using 2,2′-azino-bis(3-ethylbenzothiazoline-6-sulfonic acid) according to the method developed by [Re et al. (1999)]. Extracts were dissolved in methanol at a concentration of 1 mg/mL to prepare the primary stock solutions. Aliquots of these solutions, in volumes of 2, 5, 10, and 20 μ L, were each diluted to a final volume of 40 μ L with methanol. Subsequently, 160 μ L of ABTS cation radical solution at a 7 mM concentration was introduced to each mixture. The reactions were allowed to proceed in darkness for 6 min, subsequent to which the absorbance was recorded at a wavelength of 734 nm. BHA, BHT, and α -TOC were used as positive control.

[4] = DPPH free radical scavenging assay
Protocol: The DPPH radical scavenging assay was evaluated using 1,1-diphenyl-2-picrylhydrazyl (DPPH) free radical according to the method developed by [Blois (1958)]. Extracts were dissolved in methanol at a concentration of 1 mg/mL to prepare the primary stock solutions. Aliquots of these solutions, in volumes of 2, 5, 10, and 20 μ L, were each diluted to a final volume of 40 μ L with methanol. Subsequently, 160 μ L of DPPH solution at a 0.1 mM concentration was introduced to each mixture. After the solutions were incubated at room temperature in the dark for 30 min, their absorbance was measured at a wavelength of 517 nm. BHA, BHT, and α -TOC were used as positive control.

[5] = test system: Candida albicans ATCC 10231; test: MIC, broth microdilution; type: cell-based; conditions: ATCC10231, C. albicans ATCC 10231
Protocol: (§1) The Minimum Inhibitory Concentrations (MIC) of the extracts were determined using the broth microdilution method in accordance with the guidelines of the Clinical and Laboratory Standards Institute (CLSI) ([Clinical and Laboratory Standards Institute, 2020]). The procedure was originally based on the CLSI M27-A2 standard (1997) ([[…]]) for antifungal susceptibility testing, while the updated fourth edition (2017) was referenced to reflect current methodological standards ([[…]]).
(§2) The inocula of the tested bacterial and yeast strains were prepared following CLSI protocols, and the extracts were dissolved in DMSO to prepare stock solutions. Serial dilutions ranging from 1,250 to 0.06 μ g/mL were performed in Mueller-Hinton Broth (for bacterial strains) and RPMI-1640 medium (for yeast strains). MIC values of the extracts were determined against four g (−) bacterial strains (P. aeruginosa ATCC 27853, Escherichia coli ATCC 25922, Klebsiella pneumoniae ATCC 4352, Proteus mirabilis ATCC 14153), three g (+) bacterial strains (Staphylococcus aureus ATCC 29213, Staphylococcus epidermidis ATCC 12228, Enterococcus faecalis ATCC 29212), and three yeast strains (Candida albicans ATCC 10231, Candida parapsilosis ATCC 22019, Candida tropicalis ATCC 750).

[6] = test system: Enterococcus faecalis ATCC 29212; test: MIC, broth microdilution; type: cell-based; conditions: ATCC29212
Protocol: as §1, §2

[7] = test system: Candida tropicalis ATCC 750; test: MIC, broth microdilution; type: cell-based; conditions: ATCC750, C. tropicalis ATCC 750
Protocol: as §1, §2

[8] = test system: Candida parapsilosis ATCC 22019; test: MIC, broth microdilution; type: cell-based; conditions: Lodderomyces parapsilosis, ATCC22019; C. parapsilosis ATCC 22019
Protocol: as §1, §2

[9] = test system: Proteus mirabilis ATCC 14153; test: MIC, broth microdilution; type: cell-based; conditions: P. mirabilis ATCC 14153
Protocol: as §1, §2

[10] = test system: Staphylococcus aureus ATCC 29213; test: MIC, broth microdilution; type: cell-based; conditions: S. aureus ATCC 29213
Protocol: as §1, §2

[11] = test system: Klebsiella pneumoniae ATCC 4352; test: MIC, broth microdilution; type: cell-based; conditions: K. pneumoniae ATCC 4352
Protocol: as §1, §2

[12] = test system: Staphylococcus epidermidis ATCC 12228; test: MIC, broth microdilution; type: cell-based; conditions: S. epidermidis ATCC 12228
Protocol: as §1, §2

[13] = test system: Escherichia coli ATCC 25922; test: MIC, broth microdilution; type: cell-based; conditions: E. coli ATCC 25922
Protocol: as §1, §2

[14] = target: T1, Porcine pancreatic elastase (Sus scrofa, UniProt P00772); test: Anti-elastase assay; type: biochemical
T1 construct: Porcine pancreatic elastase (E.C. 3.4.21.36); from tissue; host or cells: porcine pancreas
T1 sequence (P00772 27-266): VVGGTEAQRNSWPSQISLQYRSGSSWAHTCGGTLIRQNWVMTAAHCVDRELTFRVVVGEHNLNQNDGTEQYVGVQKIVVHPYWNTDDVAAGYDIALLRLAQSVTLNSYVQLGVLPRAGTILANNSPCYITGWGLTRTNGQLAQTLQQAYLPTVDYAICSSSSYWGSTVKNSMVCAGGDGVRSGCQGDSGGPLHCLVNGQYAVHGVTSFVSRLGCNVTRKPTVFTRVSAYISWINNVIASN
Protocol: The elastase inhibition assay was conducted using a spectrophotometric method developed by [Lee et al. (1999)]. Porcine pancreatic elastase (E.C. 3.4.21.36) at a concentration of 3.33 mg/mL was used as the enzyme and dissolved in 0.2 mM Tris-HCl buffer (pH 8.0). The substrate, N-Succinyl-Ala-Ala-Ala-p-nitroanilide (SANA), was prepared in the same buffer at a concentration of 1.6 mM. For each reaction, 50 μ L of buffer, 25 μ L of enzyme solution, and 50 μ L of the test extract were pre-incubated at room temperature for 15 min before the addition of SANA. Epigallocatechin gallate (EGCG) was used as the positive control, while ethanol served as the negative control. The reaction was initiated by adding 125 μ L of the substrate solution to the mixture, followed by incubation at room temperature for 20 min. The absorbance change was then measured at 410 nm.

[15] = test system: P. aeruginosa ATCC 27853; test: MIC, broth microdilution; type: cell-based; conditions: Pseudomonas aeruginosa, ATCC27853
Protocol: as §1, §2

SMILES	CUPRAC (Absorbance) ([2]; 10 µg/mL)	CUPRAC (Absorbance) ([2]; 25 µg/mL)	CUPRAC (Absorbance) ([2]; 50 µg/mL)	CUPRAC (Absorbance) ([2]; 100 µg/mL)	ABTS (% Inhibition) ([3]; 10 µg/mL) [%]	ABTS (% Inhibition) ([3]; 25 µg/mL) [%]	ABTS (% Inhibition) ([3]; 50 µg/mL) [%]	ABTS (% Inhibition) ([3]; 100 µg/mL) [%]	DPPH (% Inhibition) ([4]; 10 µg/mL) [%]	DPPH (% Inhibition) ([4]; 25 µg/mL) [%]	DPPH (% Inhibition) ([4]; 50 µg/mL) [%]	DPPH (% Inhibition) ([4]; 100 µg/mL) [%]	other results
O=c1c(O[C@@H]2OC[C@H](O)[C@H](O)[C@H]2O)c(-c2ccc(O)c(O)c2)oc2cc(O)cc(O)c12 [guaijaverin]													IC50 [1]: 17.2 ± 0.75 µM
Cc1c(C)c2c(c(C)c1O)CC[C@@](C)(CCC[C@H](C)CCC[C@H](C)CCCC(C)C)O2 [α-TOC]	0.391 ± 0.01	0.904 ± 0.00	1.563 ± 0.09	2.460 ± 0.09 and 2.460	65.39 ± 2.37	83.47 ± 0.98	85.89 ± 2.62	88.89	63.28 ± 3.28	73.51 ± 4.14	76.94 ± 0.71	78.07	
Cc1cc(C(C)(C)C)c(O)c(C(C)(C)C)c1 [BHT]	0.652 ± 0.01	1.211 ± 0.18	2.040 ± 0.31	3.559 ± 0.27 and 3.559	76.35 ± 0.78	88.00 ± 2.49	88.96 ± 0.13	89.13	39.28 ± 1.03	60.68 ± 4.18	69.14 ± 1.84	76.17	
Clc1ccccc1C(c1ccccc1)(c1ccccc1)n1ccnc1 [Clotrimazole]													MIC [5]: 4.9 µg/mL (≈ 14.2 µM)
NCC[C@H](O)C(=O)N[C@@H]1C[C@H](N)[C@@H](O[C@H]2O[C@H](CN)[C@@H](O)[C@H](O)[C@H]2O)[C@H](O)[C@H]1O[C@H]1O[C@H](CO)[C@@H](O)[C@H](N)[C@H]1O [Amikacin]													MIC [6]: 128 µg/mL (≈ 219 µM)
COc1ccc(O)c(C(C)(C)C)c1 [BHA]	0.838 ± 0.03	1.647 ± 0.18	2.753 ± 0.09	3.769 ± 0.05 and 3.769	63.94 ± 0.18	78.23 ± 1.08	87.41 ± 0.16	87.62	62.00 ± 0.90	71.86 ± 0.76	74.48 ± 0.35	75.23	
C[C@@H]1[C@H](O)[C@@H](C)/C=C/C=C/C=C/C=C/C=C/C=C/C=C/[C@H](O[C@@H]2O[C@H](C)[C@@H](O)[C@H](N)[C@@H]2O)C[C@@H]2O[C@](O)(C[C@@H](O)C[C@@H](O)[C@H](O)CC[C@@H](O)C[C@@H](O)CC(=O)O[C@H]1C)C[C@H](O)[C@H]2C(=O)O [Amphotericin B]													MIC [7]: 0.5 µg/mL (≈ 0.541 µM); MIC [8]: 1 µg/mL (≈ 1.08 µM)
CO/N=C(\C(=O)N[C@@H]1C(=O)N2C(C(=O)[O-])=C(COC(N)=O)CS[C@H]12)c1ccco1.[Na+] [Cefuroxime-Na]													MIC [9]: 2.4 µg/mL; MIC [10]: 1.2 µg/mL; MIC [11]: 4.9 µg/mL; MIC [12]: 9.8 µg/mL; MIC [13]: 4.9 µg/mL
C[C@H]1[C@H](C)CC[C@]2(C(=O)O)CC[C@]3(C)C(=CC[C@@H]4[C@@]5(C)CC[C@H](O)C(C)(C)[C@@H]5CC[C@]43C)[C@H]12 [Ursolic acid]													IC50 [14]: 30.2 µM
CC(C)(O/N=C(\C(=O)N[C@@H]1C(=O)N2C(C(=O)[O-])=C(C[n+]3ccccc3)CS[C@H]12)c1csc(N)n1)C(=O)O [Ceftazidime]													MIC [15]: 2.4 µg/mL (≈ 4.39 µM)
